# In article PMC10600239, “Selective MCL-1 inhibitor ABBV-467 is efficacious in tumor models but is associated with cardiac troponin increases in patients” (Communications Medicine, 2023):
# Values joined by “and” are separate entries in the source; they are usually repeats but may differ in a detail not shown here. Equal values may be shown once.
# Tests used:
# [1] = system: OCI-AML2 xenografts; assay: OCI-AML2 xenograft efficacy (tumor volume, body weight); settings: venetoclax 25 mg/kg QD × 14, azacitidine 8 mg/kg Q7D × 3, or the combination of both
# Method: All animal studies were conducted in accordance with the guidelines approved by the Institutional Animal Care and Use Committees of AbbVie. The research protocol was approved by In Vivo Pharmacology at AbbVie prior to study initiation but was not publicly registered or disclosed. Female C.B-17 SCID-beige mice (AMO-1, OPM-2, NCI-H929, and OCI-AML2 xenografts) and female NSG mice (MV4-11-Red.Fluc systemic) were purchased from Charles River Laboratories (Wilmington, MA). Animals were housed in a light cycle-controlled room with HEPA filtration at 22 °C. Animals had nesting and climbing cage topper as the primary environmental enrichment. Animals were inoculated subcutaneously in the right flank with 5 × 10^6 (AMO-1, OPM-2, NCI-H929, and OCI-AML2) or intravenous (IV) with 5 × 10^6 (MV4-11-Red.Fluc). The inoculation volume (0.2 mL) comprised a 50:50 mixture of cells in growth media and Matrigel (BD Biosciences) for subcutaneous injections and 100% phosphate-buffered saline for IV administration. […] Electronic calipers were used to measure the length and width of each tumor 2 to 3 times per week. Tumor volume was estimated by applying the following equation: volume = length × width^2/2. All groups remained blinded during measurements and dosing; only veterinary staff were aware of group identity. When tumors reached approximately 200 mm^3, mice were randomized by match and distributed into treatment and control groups. All xenograft trials were conducted using 5 to 10 mice per group, and all mice were ear tagged and monitored individually throughout the studies.
# For combination studies, all compounds were administered within 30 min of each other.
# The tumor growth delay (TGD) percentage was determined as the percentage increase of the median time period for the treatment group to reach an arbitrary tumor volume of 1000 mm^3 relative to the vehicle control group. […] A power analysis was conducted using historical data to determine the number of animals required to yield significance of 0.05 at a 30% difference. There were no animals excluded. Data from experiments in vivo were analyzed using the student’s t-test for TGI values and the Mann–Whitney U test for TGD using Excel and GraphPad Prism. Fisher’s exact test was used to probe significance of differences in response frequency.
# [2] = system: MV4-11-Red.Fluc; assay: Systemic MV4-11-Red.Fluc model (bioluminescence, total flux); format: in vivo, mouse; set-up: bioluminescence signal, individual mouse (ear tag), 10 min post: unit: p/s; settings: for bioluminescence signal, group Average, 10 min post / bioluminescence signal, individual mouse (ear tag), 10 min post: MV 4-11 red.fluc, A-1726694 q7dx3 IV, ABT-199 50mkd qdx21 PO
# Method: All animal studies were conducted in accordance with the guidelines approved by the Institutional Animal Care and Use Committees of AbbVie. The research protocol was approved by In Vivo Pharmacology at AbbVie prior to study initiation but was not publicly registered or disclosed. Female C.B-17 SCID-beige mice (AMO-1, OPM-2, NCI-H929, and OCI-AML2 xenografts) and female NSG mice (MV4-11-Red.Fluc systemic) were purchased from Charles River Laboratories (Wilmington, MA). Animals were housed in a light cycle-controlled room with HEPA filtration at 22 °C. Animals had nesting and climbing cage topper as the primary environmental enrichment. Animals were inoculated subcutaneously in the right flank with 5 × 10^6 (AMO-1, OPM-2, NCI-H929, and OCI-AML2) or intravenous (IV) with 5 × 10^6 (MV4-11-Red.Fluc). The inoculation volume (0.2 mL) comprised a 50:50 mixture of cells in growth media and Matrigel (BD Biosciences) for subcutaneous injections and 100% phosphate-buffered saline for IV administration. All cell lines used in this publication were authenticated using IDEXX for STR profiling as well as their IMPACT and human IMPACT panels for pathogen screening. Electronic calipers were used to measure the length and width of each tumor 2 to 3 times per week. Tumor volume was estimated by applying the following equation: volume = length × width^2/2. All groups remained blinded during measurements and dosing; only veterinary staff were aware of group identity. When tumors reached approximately 200 mm^3, mice were randomized by match and distributed into treatment and control groups. All xenograft trials were conducted using 5 to 10 mice per group, and all mice were ear tagged and monitored individually throughout the studies. Any animal with a tumor above 2000 mm^3 or 15% loss in body weight was euthanized and removed from the study. Tumor burden in the systemic MV4-11-Red.Fluc experiment was measured using an IVIS® spectrum from PerkinElmer by taking the total photon flux of the entire dorsal side of an individual mouse. Ten minutes prior to imaging, animals received intraperitoneally 0.2 mL of a 15-mg/mL solution of D-Luciferin (PerkinElmer, Catalog #122799) formulated in 100% phosphate-buffered saline. Animals were anesthetized using 3.5% isoflurane and maintained using 2%. Six days after inoculation, animals were imaged and randomized into vehicle and treatment groups at a total flux of ~1 × 10^8. A background control mouse that was tumor naive but received D-Luciferin was placed in the upper left corner of each image. The total flux from this animal was subtracted from the total flux of each animal present in the image. […]
# [3] = Day 10, individual mice (ROI 2-10), listed as ABT-199
# [4] = Day 13, individual mice (ROI 2-10), listed as ABT-199
# [5] = Day 17, individual mice (ROI 2-10), listed as ABT-199
# [6] = Day 20, individual mice (ROI 2-10), listed as ABT-199
# [7] = Day 24, individual mice (ROI 2-10), listed as ABT-199
# [8] = Day 31, individual mice (ROI 2-10), listed as ABT-199
structure (smiles),measurement,setting,value
CC1(C)CCC(CN2CCN(c3ccc(C(=O)NS(=O)(=O)c4ccc(NCC5CCOCC5)c([N+](=O)[O-])c4)c(Oc4cnc5[nH]ccc5c4)c3)CC2)=C(c2ccc(Cl)cc2)C1 [venetoclax],effect on OCI-AML2 xenograft growth,[1],no meaningful effect
same,antitumor activity,"[2]; 50 mg/kg for 21 days, PO",no antitumor activity
same,Total Flux,[2]; 648 h,2.48E+10 p/s
same,Total Flux minus ROI 1 (background),[2]; 648 h,2.48E+10 p/s
same,Total Flux [p/s],[2]; [3],3.06E+08 p/s and 5.81E+08 p/s and 2.31E+08 p/s and 9.72E+08 p/s and 7.29E+08 p/s and 4.72E+08 p/s and 3.55E+08 p/s and 4.65E+08 p/s and 4.49E+08 p/s
same,Total flux minus background control mouse (ROI 1),[2]; [3],3.02E+08 p/s and 5.77E+08 p/s and 2.27E+08 p/s and 9.68E+08 p/s and 7.24E+08 p/s and 4.68E+08 p/s and 3.50E+08 p/s and 4.61E+08 p/s and 4.45E+08 p/s
same,Total Flux [p/s],[2]; [4],1.30E+09 p/s and 1.10E+09 p/s and 6.50E+08 p/s and 9.71E+08 p/s and 1.65E+09 p/s and 8.95E+08 p/s and 8.72E+08 p/s and 1.18E+09 p/s and 1.23E+09 p/s
same,Total flux minus background control mouse (ROI 1),[2]; [4],1.29E+09 p/s and 1.09E+09 p/s and 6.41E+08 p/s and 9.63E+08 p/s and 1.64E+09 p/s and 8.87E+08 p/s and 8.64E+08 p/s and 1.18E+09 p/s and 1.22E+09 p/s
same,Total Flux [p/s],[2]; [5],3.56E+09 p/s and 4.83E+09 p/s and 3.68E+09 p/s and 6.21E+09 p/s and 6.82E+09 p/s and 2.69E+09 p/s and 4.42E+09 p/s and 4.69E+09 p/s and 4.88E+09 p/s
same,Total flux minus background control mouse (ROI 1),[2]; [5],3.54E+09 p/s and 4.80E+09 p/s and 3.65E+09 p/s and 6.19E+09 p/s and 6.79E+09 p/s and 2.67E+09 p/s and 4.40E+09 p/s and 4.67E+09 p/s and 4.85E+09 p/s
same,Total Flux [p/s],[2]; [6],8.57E+09 p/s and 1.38E+10 p/s and 5.34E+09 p/s and 1.24E+10 p/s and 6.94E+09 p/s and 6.64E+09 p/s and 8.48E+09 p/s and 1.02E+10 p/s and 9.62E+09 p/s
same,Total flux minus background control mouse (ROI 1),[2]; [6],8.51E+09 p/s and 1.38E+10 p/s and 5.28E+09 p/s and 1.23E+10 p/s and 6.88E+09 p/s and 6.58E+09 p/s and 8.42E+09 p/s and 1.02E+10 p/s and 9.56E+09 p/s
same,Total Flux [p/s],[2]; [7],9.23E+09 p/s and 1.74E+10 p/s and 6.63E+09 p/s and 2.32E+10 p/s and 2.87E+10 p/s and 1.25E+10 p/s and 1.47E+10 p/s and 1.56E+10 p/s and 1.06E+10 p/s
same,Total flux minus background control mouse (ROI 1),[2]; [7],9.16E+09 p/s and 1.73E+10 p/s and 6.56E+09 p/s and 2.31E+10 p/s and 2.87E+10 p/s and 1.24E+10 p/s and 1.46E+10 p/s and 1.55E+10 p/s and 1.06E+10 p/s
same,Total Flux minus ROI 1 (background),"[2]; Day 27, individual ROI (one per animal), background-subtracted, listed as ABT-199",2.02E+10 p/s and 1.49E+10 p/s and 4.29E+10 p/s and 4.73E+10 p/s and 2.09E+10 p/s and 3.23E+10 p/s and 1.93E+10 p/s and 2.82E+10 p/s
same,Total Flux,"[2]; Day 27, individual ROI (one per animal, ROI 2-10), raw value, listed as ABT-199",2.04E+10 p/s and 1.50E+10 p/s and 4.31E+10 p/s and 4.74E+10 p/s and 2.11E+10 p/s and 3.24E+10 p/s and 1.94E+10 p/s and 2.84E+10 p/s
same,Total Flux [p/s],[2]; [8],3.95E+10 p/s and 4.22E+10 p/s and 3.73E+10 p/s and 1.10E+11 p/s and 6.34E+10 p/s and 6.46E+10 p/s and 6.17E+10 p/s and 4.73E+10 p/s and 4.87E+10 p/s
same,Total flux minus background control mouse (ROI 1),[2]; [8],3.92E+10 p/s and 4.19E+10 p/s and 3.70E+10 p/s and 1.10E+11 p/s and 6.31E+10 p/s and 6.43E+10 p/s and 6.13E+10 p/s and 4.70E+10 p/s and 4.84E+10 p/s
same,Total Flux minus ROI 1 (background),"[2]; Day 34, individual ROI (one per animal), background-subtracted, listed as ABT-199",6.39E+10 p/s and 5.69E+10 p/s and 4.58E+10 p/s and 3.00E+11 p/s and 1.05E+11 p/s and 1.25E+11 p/s and 8.20E+10 p/s and 1.20E+11 p/s and 6.30E+10 p/s
same,Total Flux,"[2]; Day 34, individual ROI (one per animal, ROI 2-10), raw value, listed as ABT-199",6.47E+10 p/s and 5.77E+10 p/s and 4.66E+10 p/s and 3.01E+11 p/s and 1.06E+11 p/s and 1.26E+11 p/s and 8.28E+10 p/s and 1.21E+11 p/s and 6.39E+10 p/s
same,Total Flux minus ROI 1 (background),"[2]; Day 38, individual ROI (one per animal), background-subtracted, listed as ABT-199",3.53E+10 p/s and 1.45E+11 p/s and 3.00E+11 p/s and 1.27E+11 p/s and 1.37E+11 p/s and 1.69E+11 p/s and 9.41E+10 p/s and 1.57E+11 p/s
same,Total Flux,"[2]; Day 38, individual ROI (one per animal, ROI 2-10), raw value, listed as ABT-199",3.60E+10 p/s and 1.46E+11 p/s and 3.01E+11 p/s and 1.27E+11 p/s and 1.38E+11 p/s and 1.69E+11 p/s and 9.48E+10 p/s and 1.57E+11 p/s
same,Total Flux minus ROI 1 (background),"[2]; Day 41, individual ROI (one per animal), background-subtracted, listed as ABT-199",2.65E+11 p/s and 1.77E+09 p/s and 1.55E+11 p/s and 4.70E+11 p/s and -1.25E+08 p/s and 2.06E+11 p/s and 5.84E+11 p/s and 2.05E+08 p/s and 1.78E+11 p/s
same,Total Flux,"[2]; Day 41, individual ROI (one per animal, ROI 2-10), raw value, listed as ABT-199",2.66E+11 p/s and 3.30E+09 p/s and 1.57E+11 p/s and 4.71E+11 p/s and 1.41E+09 p/s and 2.08E+11 p/s and 5.85E+11 p/s and 1.74E+09 p/s and 1.80E+11 p/s
same,Total Flux minus ROI 1 (background),"[2]; Day 45, individual ROI (one per animal), background-subtracted, listed as ABT-199",-3.57E+08 p/s and -4.07E+08 p/s and -2.51E+08 p/s and -8.01E+08 p/s and 2.76E+08 p/s and 4.15E+11 p/s and -2.10E+07 p/s and 1.27E+08 p/s and 8.71E+11 p/s
same,Total Flux,"[2]; Day 45, individual ROI (one per animal, ROI 2-10), raw value, listed as ABT-199",9.69E+08 p/s and 9.19E+08 p/s and 1.08E+09 p/s and 5.25E+08 p/s and 1.60E+09 p/s and 4.16E+11 p/s and 1.30E+09 p/s and 1.45E+09 p/s and 8.72E+11 p/s
same,Total Flux minus ROI 1 (background),"[2]; Day 52, individual ROI (one per animal), background-subtracted, listed as ABT-199",4.43E+11 p/s and 2.98E+10 p/s
same,Total Flux minus ROI 1 (background),"[2]; Day55, individual ROI (one per animal), background-subtracted",5.08E+11 p/s
same,Total Flux,"[2]; Day55, individual ROI (one per animal, ROI 2-10), raw value",5.09E+11 p/s
same,"bioluminescence signal, group Average, 10 min post",[2]; day 6,7.85E+07
same,"bioluminescence signal, individual mouse (ear tag), 10 min post",[2]; day 6,6.21E+07 and 5.74E+07 and 4.57E+07 and 1.10E+08 and 9.71E+07 and 7.20E+07 and 8.40E+07 and 9.10E+07
same,"bioluminescence signal, group Average, 10 min post",[2]; day 10,5.02E+08
same,"bioluminescence signal, individual mouse (ear tag), 10 min post",[2]; day 10,3.02E+08 and 5.77E+08 and 2.27E+08 and 9.68E+08 and 7.24E+08 and 4.68E+08 and 3.50E+08 and 4.61E+08
same,"bioluminescence signal, group Average, 10 min post",[2]; day 13,1.09E+09
same,"bioluminescence signal, group Average, 10 min post",[2]; day 17,4.62E+09
same,"bioluminescence signal, individual mouse (ear tag), 10 min post",[2]; day 17,3.54E+09 and 4.80E+09 and 3.65E+09 and 6.19E+09 and 6.79E+09 and 2.67E+09 and 4.40E+09 and 4.67E+09
same,"bioluminescence signal, group Average, 10 min post",[2]; day 20,9.05E+09
same,"bioluminescence signal, individual mouse (ear tag), 10 min post",[2]; day 20,8.51E+09 and 1.38E+10 and 5.28E+09 and 1.23E+10 and 6.88E+09 and 6.58E+09 and 8.42E+09 and 1.02E+10
same,"bioluminescence signal, group Average, 10 min post",[2]; day 24,1.53E+10
same,"bioluminescence signal, individual mouse (ear tag), 10 min post",[2]; day 24,9.16E+09 and 1.73E+10 and 6.56E+09 and 2.31E+10 and 2.87E+10 and 1.24E+10 and 1.46E+10 and 1.55E+10
same,"bioluminescence signal, group Average, 10 min post",[2]; day 27,2.79E+10
same,"bioluminescence signal, individual mouse (ear tag), 10 min post",[2]; day 27,2.48E+10 and 2.02E+10 and 1.49E+10 and 4.29E+10 and 4.73E+10 and 2.09E+10 and 3.23E+10 and 1.93E+10
same,"bioluminescence signal, group Average, 10 min post",[2]; day 31,5.69E+10
same,"bioluminescence signal, group Average, 10 min post",[2]; day 34,1.07E+11
same,"bioluminescence signal, group Average, 10 min post",[2]; day 38,1.45E+11
same,"bioluminescence signal, group Average, 10 min post",[2]; day 41,3.10E+11
same,"bioluminescence signal, individual mouse (ear tag), 10 min post",[2]; day 41,2.65E+11 and 1.55E+11 and 4.70E+11 and 2.06E+11 and 5.84E+11
same,"bioluminescence signal, group Average, 10 min post",[2]; day 45,6.43E+11
same,"bioluminescence signal, individual mouse (ear tag), 10 min post",[2]; day 45,4.15E+11
same,"bioluminescence signal, group Average, 10 min post",[2]; day 48,2.37E+11
same,"bioluminescence signal, individual mouse (ear tag), 10 min post",[2]; day 48,4.43E+11
same,"bioluminescence signal, group Average, 10 min post",[2]; day 55,8.71E+11
